Several values for one entry are separate records, joined by “and”; a condition that tells them apart may be missing. Equal entries are not always repeated. Inconclusive results and toxic doses are left out. Cut-off read from the data, not from the text of the source: active = T/C of 150% or more; inactive = T/C below 125%.
Tested on: L1210 leukemia ip in BDF1 mice, survival T/C
Assay: NCI In Vivo Anticancer Drug Screen. Data for tumor model L1210 Leukemia (intraperitoneal) in B6D2F1 (BDF1) mice
Details: endpoint: mean survival time, higher = longer survival
Outline: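 Transplantable tumor model; survival measured in treated vs vehicle control mice. Value = treated/control.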

[1] = dose: 100.0 mg/kg/injection, schedule: Q04DX003 (ip), vehicle: Klucel (hydroxypropylcellulose) (HPC)
[2] = dose: 200.0 mg/kg/injection, schedule: Q04DX003 (ip), vehicle: Klucel (hydroxypropylcellulose) (HPC)
[3] = dose: 400.0 mg/kg/injection, schedule: Q04DX003 (ip), vehicle: Klucel (hydroxypropylcellulose) (HPC)
[4] = dose: 100.0 mg/kg/injection, schedule: Q04DX002 (ip), vehicle: Klucel (hydroxypropylcellulose) (HPC)
[5] = dose: 200.0 mg/kg/injection, schedule: Q04DX002 (ip), vehicle: Klucel (hydroxypropylcellulose) (HPC)

Measured: T/C

COC(=O)c1cc(NC(=O)Nc2cc([N+](=O)[O-])ccc2C)cc(C(=O)OC)c1
inactive: dose: 100.0 mg/kg/injection, schedule: Q04DX002 (ip), vehicle: saline 120 % of control | dose: 200.0 mg/kg/injection, schedule: Q04DX002 (ip), vehicle: saline 103 % of control | dose: 400.0 mg/kg/injection, schedule: Q04DX002 (ip), vehicle: saline 116 % of control

CCSC1C(O)C(C(O)CO)OC1n1cc(C)c(=O)[nH]c1=O (centres undefined)
inactive: dose: 100.0 mg/kg/injection, schedule: Q01DX005 (ip), vehicle: saline 102 % of control | dose: 200.0 mg/kg/injection, schedule: Q01DX005 (ip), vehicle: saline 107 % of control

COc1cc(C(=O)O)ccc1[N+](=O)[O-]
inactive: dose: 100.0 mg/kg/injection, schedule: Q04DX003 (ip), vehicle: saline with Tween-80 102 % of control | dose: 200.0 mg/kg/injection, schedule: Q04DX003 (ip), vehicle: saline with Tween-80 102 % of control | dose: 400.0 mg/kg/injection, schedule: Q04DX003 (ip), vehicle: saline with Tween-80 96 % of control

CC(=O)Nc1cc([N+](=O)[O-])ccc1O
inactive: [1] 101 % of control | [2] 101 % of control | [3] 101 % of control

C/C(=N/N)c1ccccc1O
inactive: dose: 25.6 mg/kg/injection, schedule: Q04DX002 (ip), vehicle: saline 88 % of control | dose: 160.0 mg/kg/injection, schedule: Q04DX002 (ip), vehicle: saline 92 % of control

CCN(Cc1ccccc1)C(=S)Nc1ccccc1
inactive: [4] 96 % of control | [5] 108 % of control | dose: 400.0 mg/kg/injection, schedule: Q04DX002 (ip), vehicle: Klucel (hydroxypropylcellulose) (HPC) 101 % of control

CCCNC(=O)Sc1ccc(Cl)cc1
inactive: dose: 12.5 mg/kg/injection, schedule: Q01DX001 (ip), vehicle: Klucel (hydroxypropylcellulose) (HPC) 100 % of control | dose: 12.5 mg/kg/injection, schedule: Q01DX009 (ip), vehicle: Klucel (hydroxypropylcellulose) (HPC) 95 % of control and 110 % of control | dose: 25.0 mg/kg/injection, schedule: Q01DX001 (ip), vehicle: Klucel (hydroxypropylcellulose) (HPC) 95 % of control | dose: 25.0 mg/kg/injection, schedule: Q01DX009 (ip), vehicle: Klucel (hydroxypropylcellulose) (HPC) 97 % of control and 106 % of control | dose: 50.0 mg/kg/injection, schedule: Q01DX001 (ip), vehicle: Klucel (hydroxypropylcellulose) (HPC) 94 % of control | dose: 50.0 mg/kg/injection, schedule: Q01DX009 (ip), vehicle: Klucel (hydroxypropylcellulose) (HPC) 98 % of control | [4] 96 % of control | [5] 93 % of control and 86 % of control

NC(=O)NC1C=CC=CC=C1
inactive: dose: 100.0 mg/kg/injection, schedule: Q01DX001 (ip), vehicle: acetone 107 % of control | dose: 200.0 mg/kg/injection, schedule: Q01DX001 (ip), vehicle: acetone 93 % of control | dose: 400.0 mg/kg/injection, schedule: Q01DX001 (ip), vehicle: acetone 98 % of control

CC(Sc1ccc([N+](=O)[O-])cn1)C(=O)O (centres undefined)
inactive: dose: 50.0 mg/kg/injection, schedule: Q01DX001 (ip), vehicle: carboxymethylcellulose (CMC) 107 % of control | dose: 100.0 mg/kg/injection, schedule: Q01DX001 (ip), vehicle: carboxymethylcellulose (CMC) 101 % of control | dose: 200.0 mg/kg/injection, schedule: Q01DX001 (ip), vehicle: carboxymethylcellulose (CMC) 101 % of control | dose: 400.0 mg/kg/injection, schedule: Q01DX001 (ip), vehicle: carboxymethylcellulose (CMC) 109 % of control

CN(C)c1cc(Br)c(C=O)cc1[N+](=O)[O-]
inactive: dose: 100.0 mg/kg/injection, schedule: Q01DX009 (ip), vehicle: Klucel (hydroxypropylcellulose) (HPC) 94 % of control | [1] 102 % of control | dose: 200.0 mg/kg/injection, schedule: Q01DX009 (ip), vehicle: Klucel (hydroxypropylcellulose) (HPC) 103 % of control | [2] 93 % of control | dose: 400.0 mg/kg/injection, schedule: Q01DX009 (ip), vehicle: Klucel (hydroxypropylcellulose) (HPC) 92 % of control | [3] 98 % of control

Cc1ccc(C(c2ccc(C)c(C)c2)C(c2ccc(C)c(C)c2)C(O)C(O)C(O)CO)cc1C (centres undefined)
inactive: dose: 50.0 mg/kg/injection, schedule: Q01DX001 (ip), vehicle: saline 93 % of control | dose: 100.0 mg/kg/injection, schedule: Q01DX001 (ip), vehicle: saline 106 % of control | dose: 200.0 mg/kg/injection, schedule: Q01DX001 (ip), vehicle: saline 98 % of control | dose: 400.0 mg/kg/injection, schedule: Q01DX001 (ip), vehicle: saline 98 % of control

CCOC(=O)C(CCCO)C(=O)OCC
inactive: dose: 100.0 mg/kg/injection, schedule: Q01DX001 (ip), vehicle: saline with Tween-80 98 % of control | dose: 200.0 mg/kg/injection, schedule: Q01DX001 (ip), vehicle: saline with Tween-80 96 % of control | dose: 400.0 mg/kg/injection, schedule: Q01DX001 (ip), vehicle: saline with Tween-80 91 % of control

Reference: PubChem BioAssay AID248 (DTP/NCI, 2004)
